According to ChEMBL document CHEMBL1150173, “Antiviral saponins from Tieghemella heckelii” (J Nat Prod, 2002):
Active and inactive are the calls of the source. The calls are words filed in the database; no cut-off is given here.

Tests used:
[1] = test system: Human immunodeficiency virus 1; assay: Inhibition of HIV1 in wild type CHO cells mediated human HeLa-CD4+ cell fusion assessed as inhibition of syncytium formation at 20 uM by cell-cell fusion assay; type: functional
HeLa = assay: Cytotoxicity against human HeLa cells expressing CD4+ construct at 20 uM after 3 days by MTT assay; type: cell-based; settings: 72 h

| SMILES | Activity [1] | inhibition at 20 µM ([1]; Human immunodeficiency virus 1, CHO) [%] | Activity (HeLa) |
| --- | --- | --- | --- |
| CC1(C)CC[C@]2(C(=O)O)[C@H](O)C[C@]3(C)C(=CC[C@@H]4[C@@]5(C)C[C@H](O)[C@H](O[C@@H]6O[C@H](C(=O)O)[C@@H](O)[C@H](O)[C@H]6O)[C@@](C)(CO)[C@@H]5[C@H](O)C[C@]43C)[C@@H]2C1 | inactive |  |  |
| CC1(C)CC[C@]2(C(=O)O)[C@H](O)C[C@]3(C)C(=CC[C@@H]4[C@@]5(C)C[C@H](O)[C@H](O[C@@H]6O[C@H](CO)[C@@H](O)[C@H](O)[C@H]6O)[C@@](C)(CO)[C@@H]5[C@H](O)C[C@]43C)[C@@H]2C1 | inactive |  |  |
| C[C@@H]1O[C@@H](O[C@@H]2[C@@H](O)[C@H](O[C@@H]3[C@@H](O)[C@@H](O)[C@H](O[C@H]4[C@H](OC(=O)[C@]56CCC(C)(C)C[C@H]5C5=CC[C@@H]7[C@@]8(C)C[C@H](O)[C@H](O[C@@H]9O[C@H](CO)[C@@H](O)[C@H](O)[C@H]9O)[C@@](C)(CO)[C@@H]8[C@H](O)C[C@@]7(C)[C@]5(C)C[C@H]6O)OC[C@H](O)[C@@H]4O)O[C@H]3C)OC[C@H]2O)[C@H](O)[C@H](O)[C@H]1O [ARGANINE C] |  | 100 | Non-toxic |
| C[C@@H]1O[C@@H](O[C@@H]2[C@@H](O)[C@H](O[C@@H]3[C@@H](O)[C@@H](O)[C@H](O[C@H]4[C@H](OC(=O)[C@]56CCC(C)(C)C[C@H]5C5=CC[C@@H]7[C@@]8(C)C[C@H](O)[C@H](O[C@@H]9O[C@H](C(=O)O)[C@@H](O)[C@H](O)[C@H]9O)[C@@](C)(CO)[C@@H]8[C@H](O)C[C@@]7(C)[C@]5(C)C[C@H]6O)OC[C@H](O)[C@@H]4O)O[C@H]3C)OC[C@H]2O)[C@H](O)[C@H](O)[C@H]1O [TIEGHEMELIN] |  |  | Non-toxic |
